target: T1, IRAK4 (Homo sapiens, UniProt Q9NWZ3); experiment: IRAK4 Degradation Assay, HiBiT Method; assay type: cell-based; conditions: 293T cells expressing HiBiT-tagged IRAK4, 6 hours
T1 construct: 293Tcells expressing HiBiT-tagged IRAK4 were then added into 384-well plates
T1 sequence (Q9NWZ3 1-460): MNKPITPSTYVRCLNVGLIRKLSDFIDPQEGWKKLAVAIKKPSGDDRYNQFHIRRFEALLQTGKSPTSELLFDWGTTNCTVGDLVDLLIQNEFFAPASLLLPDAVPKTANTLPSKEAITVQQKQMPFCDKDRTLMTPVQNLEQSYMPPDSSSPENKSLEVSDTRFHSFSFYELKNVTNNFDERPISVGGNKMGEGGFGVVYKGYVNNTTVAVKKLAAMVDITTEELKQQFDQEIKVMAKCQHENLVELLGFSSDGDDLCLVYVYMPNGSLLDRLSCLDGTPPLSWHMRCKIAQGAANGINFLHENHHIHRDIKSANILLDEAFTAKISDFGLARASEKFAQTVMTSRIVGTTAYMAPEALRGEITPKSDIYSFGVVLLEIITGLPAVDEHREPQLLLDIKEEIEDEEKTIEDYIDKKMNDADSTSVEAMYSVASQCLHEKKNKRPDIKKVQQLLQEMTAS
Procedure, shortened: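 Luminescent read-out with Nano-Glo HiBiT lytic reagent after 6 h compound exposure at 37 °C. Cells were HiBiT-IRAK4 knock-in 293T (C-terminal tag), 10,000 per well. Compounds ran as 11-point half-log dilutions from […] highest dose, duplicate wells; DMSO served as negative control.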

Compound | DC50
CC(C)Oc1cc2nn([C@H]3CC[C@H](CN4CCN(c5ccc6c(N7CCC(=O)NC7=O)cnn6c5)CC4)CC3)cc2cc1C(=O)Nc1cccn([C@H]2C[C@H]2F)c1=O [Example 145, 2-((1r,4S)-4-((4-(3-(2,4-dioxotetrahydropyrimidin-1(2H)-yl)pyrazolo[1,5-a]pyridin-6-yl)piperazin-1-yl)methyl)cyclohexyl)-N-(1-((1S,2R)-2-fluorocyclopropyl)-2-oxo-1,2-dihydropyridin-3-yl)-6-isopropoxy-2H-indazole-5-carboxamide] | < 10 nM
CC(C)Oc1cc2nn([C@H]3CC[C@H](CN4CCN(c5ccn6c(N7CCC(=O)NC7=O)cnc6c5)CC4)CC3)cc2cc1C(=O)Nc1cccn([C@H]2C[C@H]2F)c1=O [Example 146, 2-((1r,4S)-4-((4-(3-(2,4-dioxotetrahydropyrimidin-1(2H)-yl)imidazo[1,2-a]pyridin-7-yl)piperazin-1-yl)methyl)cyclohexyl)-N-(1-((1S,2R)-2-fluorocyclopropyl)-2-oxo-1,2-dihydropyridin-3-yl)-6-isopropoxy-2H-indazole-5-carboxamide] | < 10 nM
CC(C)Oc1cc2nn(C3CCN(C(=O)CC4CCN(c5ncc6c(n5)n(C)c(=O)n6C5CCC(=O)NC5=O)CC4)CC3)cc2cc1C(=O)Nc1cccn([C@H]2C[C@H]2F)c1=O (stereo partly drawn) [Example 150, 2-(1-(2-(1-(7-(2,6-dioxopiperidin-3-yl)-9-methyl-8-oxo-8,9-dihydro-7H-purin-2-yl)piperidin-4-yl)acetyl)piperidin-4-yl)-N-(1-((1S,2R)-2-fluorocyclopropyl)-2-oxo-1,2-dihydropyridin-3-yl)-6-isopropoxy-2H-indazole-5-carboxamide] | < 10 nM
CC(C)Oc1cc2nn(C3CCN(C(=O)CC4(O)CCN(c5ncc(C6CCC(=O)NC6=O)cc5F)CC4)CC3)cc2cc1C(=O)Nc1cccn([C@H]2C[C@H]2F)c1=O (stereo partly drawn) [Example 152, 2-(1-(2-(1-(5-(2,6-dioxopiperidin-3-yl)-3-fluoropyridin-2-yl)-4-hydroxypiperidin-4-yl)acetyl)piperidin-4-yl)-N-(1-((S,2R)-2-fluorocyclopropyl)-2-oxo-1,2-dihydropyridin-3-yl)-6-isopropoxy-2H-indazole-5-carboxamide] | < 10 nM
CC(C)Oc1cc2nc(C3CCN(C(=O)NC4CCN(c5ccc(C6CCC(=O)NC6=O)cn5)CC4)CC3)cn2cc1C(=O)Nc1cnn2cccnc12 (stereo not drawn) [Example 157, 2-[1-[[1-[5-(2,6-dioxo-3-piperidyl)-2-pyridyl]-4-piperidyl]carbamoyl]-4-piperidyl]-7-isopropoxy-N-pyrazolo[1,5-a]pyrimidin-3-yl-imidazo[1,2-a]pyridine-6-carboxamide] | < 10 nM
CC(C)Oc1cc2nc(C3CCN(C(=O)CC4CCN(c5ccc(C6CCC(=O)NC6=O)cn5)CC4)CC3)cn2cc1C(=O)Nc1cccn([C@H]2C[C@H]2F)c1=O (stereo partly drawn) [Example 160, 2-(1-(2-(1-(5-(2,6-dioxopiperidin-3-yl)pyridin-2-yl)piperidin-4-yl)acetyl)piperidin-4-yl)-N-(1-((1S,2R)-2-fluorocyclopropyl)-2-oxo-1,2-dihydropyridin-3-yl)-7-isopropoxyimidazo[1,2-a]pyridine-6-carboxamide] | < 10 nM
CC(C)Oc1cc2nc(C3CCN(C(=O)CC4CCN(c5ncc(C6CCC(=O)NC6=O)cc5F)CC4)CC3)cn2cc1C(=O)Nc1cccn([C@H]2C[C@H]2F)c1=O (stereo partly drawn) [Example 161, 2-(1-(2-(1-(5-(2,6-dioxopiperidin-3-yl)-3-fluoropyridin-2-yl)piperidin-4-yl)acetyl)piperidin-4-yl)-N-(1-((1S,2R)-2-fluorocyclopropyl)-2-oxo-1,2-dihydropyridin-3-yl)-7-isopropoxyimidazo[1,2-a]pyridine-6-carboxamide] | 10 to 100 nM
CC(C)Oc1cc2nc(C3CCN(C(=O)CN4CCN(c5ccc(C6CCC(=O)NC6=O)cn5)CC4)CC3)cn2cc1C(=O)Nc1cccn([C@H]2C[C@H]2F)c1=O (stereo partly drawn) [Example 163, 2-(1-(2-(4-(5-(2,6-dioxopiperidin-3-yl)pyridin-2-yl)piperazin-1-yl)acetyl)piperidin-4-yl)-N-(1-((1S,2R)-2-fluorocyclopropyl)-2-oxo-1,2-dihydropyridin-3-yl)-7-isopropoxyimidazo[1,2-a]pyridine-6-carboxamide] | < 10 nM
CC(C)Oc1cc2nc(C3CCN(C(=O)CCCNc4ccc(C5CCC(=O)NC5=O)cn4)CC3)cn2cc1C(=O)Nc1cccn([C@H]2C[C@H]2F)c1=O (stereo partly drawn) [Example 164, 2-(1-(4-((5-(2,6-dioxopiperidin-3-yl)pyridin-2-yl)amino)butanoyl)piperidin-4-yl)-N-(1-((1S,2R)-2-fluorocyclopropyl)-2-oxo-1,2-dihydropyridin-3-yl)-7-isopropoxyimidazo[1,2-a]pyridine-6-carboxamide] | 10 to 100 nM
CC(C)Oc1cc2nc(C3CCN(C(=O)CCCCNc4ccc(C5CCC(=O)NC5=O)cn4)CC3)cn2cc1C(=O)Nc1cccn([C@H]2C[C@H]2F)c1=O (stereo partly drawn) [Example 165, 2-(1-(5-((5-(2,6-dioxopiperidin-3-yl)pyridin-2-yl)amino)pentanoyl)piperidin-4-yl)-N-(1-((1S,2R)-2-fluorocyclopropyl)-2-oxo-1,2-dihydropyridin-3-yl)-7-isopropoxyimidazo[1,2-a]pyridine-6-carboxamide] | 10 to 100 nM
CC(C)Oc1cc2nc([C@H]3CC[C@H](CN4CCC(c5ccc(OC6CCC(=O)NC6=O)cc5)CC4)CC3)cn2cc1C(=O)Nc1cccn(C2CC2)c1=O (stereo partly drawn) [Example 166, N-(1-cyclopropyl-2-oxo-1,2-dihydropyridin-3-yl)-2-((1r,4r)-4-((4-(4-((2,6-dioxopiperidin-3-yl)oxy)phenyl)piperidin-1-yl)methyl)cyclohexyl)-7-isopropoxyimidazo[1,2-a]pyridine-6-carboxamide] | 10 to 100 nM

Further lines, results first:

DC50 | Compound
10 to 100 nM | CC(C)Oc1cc2nn(C3CCN(C(=O)CC4CCN(c5ncc(C6CCC(=O)NC6=O)cc5F)CC4)CC3)cc2cc1C(=O)Nc1cnn2cccnc12 (stereo not drawn) [Example 148, 2-(1-(2-(1-(5-(2,6-dioxopiperidin-3-yl)-3-fluoropyridin-2-yl)piperidin-4-yl)acetyl)piperidin-4-yl)-6-isopropoxy-N-(pyrazolo[1,5-a]pyrimidin-3-yl)-2H-indazole-5-carboxamide]
< 10 nM | CC(C)Oc1cc2nn(C3CCN(C(=O)CC4CCN(c5ccc(C6CCC(=O)NC6=O)cn5)CC4)CC3)cc2cc1C(=O)Nc1cccn([C@H]2C[C@H]2F)c1=O (stereo partly drawn) [Example 149, 2-(1-(2-(1-(5-(2,6-dioxopiperidin-3-yl)pyridin-2-yl)piperidin-4-yl)acetyl)piperidin-4-yl)-N-(1-((1S,2R)-2-fluorocyclopropyl)-2-oxo-1,2-dihydropyridin-3-yl)-6-isopropoxy-2H-indazole-5-carboxamide]
< 10 nM | CC(C)Oc1cc2nn(C3CCN(C(=O)CC4CCN(c5ncc(C6CCC(=O)NC6=O)cc5F)CC4)CC3)cc2cc1C(=O)Nc1cccn([C@H]2C[C@H]2F)c1=O (stereo partly drawn) [Example 151, 2-(1-(2-(1-(5-(2,6-dioxopiperidin-3-yl)-3-fluoropyridin-2-yl)piperidin-4-yl)acetyl)piperidin-4-yl)-N-(1-((1S,2R)-2-fluorocyclopropyl)-2-oxo-1,2-dihydropyridin-3-yl)-6-isopropoxy-2H-indazole-5-carboxamide]
< 10 nM | CC(C)Oc1cc2nn(C3CCN(C(=O)NC4CCN(c5ncc(C6CCC(=O)NC6=O)cc5F)CC4)CC3)cc2cc1C(=O)Nc1cccn([C@H]2C[C@H]2F)c1=O (stereo partly drawn) [Example 154, 2-(1-((1-(5-(2,6-dioxopiperidin-3-yl)-3-fluoropyridin-2-yl)piperidin-4-yl)carbamoyl)piperidin-4-yl)-N-(1-((1S,2R)-2-fluorocyclopropyl)-2-oxo-1,2-dihydropyridin-3-yl)-6-isopropoxy-2H-indazole-5-carboxamide]
10 to 100 nM | CC(C)Oc1cc2nn(C3CCN(C(=O)N(C)C4CCN(c5ncc(C6CCC(=O)NC6=O)cc5F)CC4)CC3)cc2cc1C(=O)Nc1cccn([C@H]2C[C@H]2F)c1=O (stereo partly drawn) [Example 155, 2-(1-((1-(5-(2,6-dioxopiperidin-3-yl)-3-fluoropyridin-2-yl)piperidin-4-yl)(methyl)carbamoyl)piperidin-4-yl)-N-(1-((1S,2R)-2-fluorocyclopropyl)-2-oxo-1,2-dihydropyridin-3-yl)-6-isopropoxy-2H-indazole-5-carboxamide]
10 to 100 nM | CC(C)Oc1cc2nn(C3CCN(C(=O)OC4CCN(c5ncc(C6CCC(=O)NC6=O)cc5F)CC4)CC3)cc2cc1C(=O)Nc1cccn([C@H]2C[C@H]2F)c1=O (stereo partly drawn) [Example 156, 1-(5-(2,6-dioxopiperidin-3-yl)-3-fluoropyridin-2-yl)piperidin-4-yl 4-(5-((1-((1S,2R)-2-fluorocyclopropyl)-2-oxo-1,2-dihydropyridin-3-yl)carbamoyl)-6-isopropoxy-2H-indazol-2-yl)piperidine-1-carboxylate]
< 10 nM | CC(C)Oc1cc2nc(C3CCN(C(=O)NC4CCN(c5ncc(C6CCC(=O)NC6=O)cc5F)CC4)CC3)cn2cc1C(=O)Nc1cnn2cccnc12 (stereo not drawn) [Example 158, 2-(1-((1-(5-(2,6-dioxopiperidin-3-yl)-3-fluoropyridin-2-yl)piperidin-4-yl)carbamoyl)piperidin-4-yl)-7-isopropoxy-N-(pyrazolo[1,5-a]pyrimidin-3-yl)imidazo[1,2-a]pyridine-6-carboxamide]

From patent US20240343733A1, “COMPOUNDS FOR TARGETING DEGRADATION OF IRAK4 PROTEINS” (BIOGEN MA INC., priority 2021, published 2024)
